Experimental data taken from patent US6962713B2, “Spot-on formulations for combating parasites” (Merial, priority 1919, dated 2005).
Several values for one entry are separate records, joined by “and”; a condition that tells them apart may be missing. Equal entries are not always repeated.

How the values were obtained:
[1] = ivermectin, cited from earlier work
[2] = test system: gastrointestinal nematodes; settings: Ivomec subcutaneous, 400 μg.kg^−1 of ivermectin, dog; known; cited from earlier work
[3] = Plasma kinetics of ivermectin after topical (spot-on) application 250 μg.kg in combination with fipronil to dogs; type: in vivo, dog; settings: spot-on 0.25% ivermectin + 10% fipronil, 5 dogs
Protocol: This study was undertaken in order to assess the pharmacokinetic behaviour of ivermectin and fipronil after a topical (spot-on) application of ivermectin in combination with fipronil to the dog.
Five male Beagle dogs were applied a spot-on formulation combining ivermectin and fipronil at a dose of 0.1 ml.kg^−1, i.e. 250 μg.kg and 10 mg.kg^−1 of ivermectin and fipronil, respectively. Blood samples were collected at intervals up to 28 days post-treatment. The determination of ivermectin in dog plasma was carried out by HPLC, using fluorescence detection, with a limit of quantification of 100 pg.ml^−1. The determination of fipronil and its sulfone metabolite (RM1602) was carried out by HPLC with UV detection with a limit of quantification of 20 ng.ml^−1 for fipronil and RM1602.
The formulation tested was as follows: […]

[4] = Plasma kinetics of ivermectin after subcutaneous injection of Ivomec to dogs; type: in vivo, dog; settings: for Plasma concentrations of ivermectin / Plasma concentrations of ivermectin, Mean: Ivomec subcutaneous 400 μg.kg^−1, dogs
Protocol: This study was conducted in order to assess the pharmacokinetics of ivemectin in the dog after subcutaneous administration of Ivomec® at a dose of 400 μg.kg^−1 of ivermectin which is known to be effective on gastrointestinal nematodes and to have a route of reference for further development.
Five male Beagle dogs were injected a subcutaneous dose of 400 μg.kg^−1 of ivermectin. Blood samples were collected at intervals up to 56 days post-dosing. The determination of ivermectin in dog plasma was carried out by HPLC, using fluorescence detection after derivatization. The limit of quantification was 100 pg.ml^−1.

[5] = Plasma kinetics of ivermectin after spot-on application 250 μg.kg^−1 in combination with fipronil to cats; type: in vivo, cat; settings: spot-on 0.25% ivermectin + 10% fipronil, 5 cats
Protocol: This study was undertaken in order to assess the pharmacokinetic behaviour of ivermectin after a topical (spot-on) application of a formulation containing 0.25% of ivermectin and 10% of fipronil to the cat. The formulation was as follows: […]
Five male european cats were treed with the spot-on formulation at a dose of 0.1 ml.kg^−1 (i.e. 250 μg.kg^−1 of ivermectin and 10 mg.kg^−1 of fipronil).
Blood samples were collected at intervals up to 42 days post-treatment.
The determination of ivermectin in cat plasma was carried out by a validated HPLC method using fluorescence detection, with a limit of quantification of 100 pg.ml^−1.

[6] = test system: heartworms; settings: Cardomec oral, 6 μg.kg^−1 of ivermectin, dog; known; cited from earlier work
[7] = Ivomec subcutaneous 400 μg.kg^−1, 5 dogs, mean
[8] = Ivomec subcutaneous, dose 400 pg.kg^−1 [sic], individual dogs

Substance: ivermectin
- tmax, literature data ([1]; food state of dogs not specified): 2 to 4 h
- AUC, mean literature values [1]: 107.318 ng·h/mL
- Cmax, mean literature values [1]: more than 2000 pg. ml^−1
- effective on gastrointestinal nematodes [2]: effective
- t½, Mean ([3]; 250 μg.kg ivermectin, harmonic mean): 132 h
- AUC(0-t), Mean ([3]; 250 μg.kg ivermectin, mean): 19218 pg·days/mL
- AUC(0-∞), Mean ([3]; 250 μg.kg ivermectin, mean): 22842 pg·days/mL
- Tlast, Mean ([3]; 250 μg.kg ivermectin, mean): 21 days
- tmax, Mean ([3]; 250 μg.kg ivermectin, mean): 110 h
- Cmax, Mean ([3]; 0.1 ml.kg^−1 (250 μg.kg ivermectin), mean): 1.618 ng/mL
- AUC(0-t), Mean [4, 7]: 226900 pg·days/mL
- AUC(0-∞), Mean [4, 7]: 227897 pg·days/mL
- Cmax, Mean [4, 7]: 28.935 ng/mL and ~30 ng/mL
- Plasma concentrations of ivermectin ([4]; 0, individual dogs): BLQ (The limit of quantification was 100 pg.ml^−1)
- Plasma concentrations of ivermectin, Mean ([4]; 0, mean of 5 dogs): BLQ (The limit of quantification was 100 pg.ml^−1)
- Plasma concentrations of ivermectin ([4]; 0.25 h, individual dogs): 275 pg.ml^−1 and BLQ (The limit of quantification was 100 pg.ml^−1) (2×) and 158 pg.ml^−1 and 1123 pg.ml^−1
- Plasma concentrations of ivermectin, Mean ([4]; 0.25 h, mean of 5 dogs (BLQ taken as 0)): 0.311 ng/mL
- Plasma concentrations of ivermectin ([4]; 0.5 h, individual dogs): 531 pg.ml^−1 and BLQ (The limit of quantification was 100 pg.ml^−1) (2×) and 183 pg.ml^−1 and 1757 pg.ml^−1
- Plasma concentrations of ivermectin, Mean ([4]; 0.5 h, mean of 5 dogs (BLQ taken as 0)): 0.494 ng/mL
- Plasma concentrations of ivermectin ([4]; 1 h, individual dogs): 952 pg.ml^−1 and BLQ (The limit of quantification was 100 pg.ml^−1) and 272 pg.ml^−1 and 1487 pg.ml^−1 and 257 pg.ml^−1
- Plasma concentrations of ivermectin, Mean ([4]; 1 h, mean of 5 dogs (BLQ taken as 0)): 0.594 ng/mL
- Plasma concentrations of ivermectin ([4]; 4 h, individual dogs): 3148 pg/mL and 935 pg/mL and 2519 pg/mL and 2788 pg/mL and 1621 pg/mL
- Plasma concentrations of ivermectin, Mean ([4]; 4 h, mean of 5 dogs): 2.202 ng/mL
- Plasma concentrations of ivermectin ([4]; 10 h, individual dogs): 9438 pg/mL and 2799 pg/mL and 7471 pg/mL and 6881 pg/mL and 2322 pg/mL
- Plasma concentrations of ivermectin, Mean ([4]; 10 h, mean of 5 dogs): 5.782 ng/mL
- Plasma concentrations of ivermectin ([4]; 24 h, individual dogs): 19192 pg/mL and 9322 pg/mL and 25996 pg/mL and 13986 pg/mL and 7730 pg/mL
- Plasma concentrations of ivermectin, Mean ([4]; 24 h, mean of 5 dogs): 15.245 ng/mL
- Plasma concentrations of ivermectin ([4]; 32 h, individual dogs): 21779 pg/mL and 11651 pg/mL and 28569 pg/mL and 18632 pg/mL and 11810 pg/mL
- Plasma concentrations of ivermectin, Mean ([4]; 32 h, mean of 5 dogs): 18.488 ng/mL
- Plasma concentrations of ivermectin ([4]; 48 h, individual dogs): 26256 pg/mL and 18359 pg/mL and 33716 pg/mL and 27200 pg/mL and 21450 pg/mL
- Plasma concentrations of ivermectin, Mean ([4]; 48 h, mean of 5 dogs): 25.396 ng/mL
- Plasma concentrations of ivermectin ([4]; 56 h, individual dogs): 23243 pg/mL and 18913 pg/mL and 33887 pg/mL and 20868 pg/mL and 22925 pg/mL
- Plasma concentrations of ivermectin, Mean ([4]; 56 h, mean of 5 dogs): 23.967 ng/mL
- Plasma concentrations of ivermectin ([4]; D 3, individual dogs): 23145 pg/mL and 23181 pg/mL and 38453 pg/mL and 22367 pg/mL and 25089 pg/mL
- Plasma concentrations of ivermectin, Mean ([4]; D 3, mean of 5 dogs): 26.447 ng/mL
- Plasma concentrations of ivermectin ([4]; D 4, individual dogs): 19498 pg/mL and 24875 pg/mL and 41257 pg/mL and 22550 pg/mL and 24955 pg/mL
- Plasma concentrations of ivermectin, Mean ([4]; D 4, mean of 5 dogs): 26.627 ng/mL
- Plasma concentrations of ivermectin ([4]; D 5, individual dogs): 13068 pg/mL and 21883 pg/mL and 28398 pg/mL and 21501 pg/mL and 21333 pg/mL
- Plasma concentrations of ivermectin, Mean ([4]; D 5, mean of 5 dogs): 21.237 ng/mL
- Plasma concentrations of ivermectin ([4]; D 7, individual dogs): 10892 pg/mL and 17800 pg/mL and 21415 pg/mL and 15434 pg/mL and 15695 pg/mL
- Plasma concentrations of ivermectin, Mean ([4]; D 7, mean of 5 dogs): 16.247 ng/mL
- Plasma concentrations of ivermectin ([4]; D 9, individual dogs): 5662 pg/mL and 12098 pg/mL and 11892 pg/mL and 10889 pg/mL and 12769 pg/mL
- Plasma concentrations of ivermectin, Mean ([4]; D 9, mean of 5 dogs): 10.662 ng/mL
- Plasma concentrations of ivermectin ([4]; D 14, individual dogs): 1924 pg/mL and 5269 pg/mL and 4248 pg/mL and 5752 pg/mL and 6285 pg/mL
- Plasma concentrations of ivermectin, Mean ([4]; D 14, mean of 5 dogs): 4.696 ng/mL
- Plasma concentrations of ivermectin ([4]; D 21, individual dogs): 162 pg/mL and 1034 pg/mL and 625 pg/mL and 746 pg/mL and 903 pg/mL
- Plasma concentrations of ivermectin, Mean ([4]; D 21, mean of 5 dogs): 0.694 ng/mL
- Plasma concentrations of ivermectin ([4]; D 28, individual dogs): BLQ (The limit of quantification was 100 pg.ml^−1) (2×) and 190 pg.ml^−1 and 108 pg.ml^−1 and 119 pg.ml^−1
- Plasma concentrations of ivermectin, Mean ([4]; D 28, mean of 5 dogs (BLQ taken as 0)): BLQ (The limit of quantification was 100 pg.ml^−1)
- Plasma concentrations of ivermectin ([4]; D 35, individual dogs): BLQ (The limit of quantification was 100 pg.ml^−1)
- Plasma concentrations of ivermectin, Mean ([4]; D 35, mean of 5 dogs): BLQ (The limit of quantification was 100 pg.ml^−1)
- tmax ([4]; Ivomec subcutaneous, 400 μg.kg^−1, individual dogs): 2 d (2×) and 4 d (2×) and 3 d
- AUC(0-t) [4, 8]: 161141 pg·days/mL and 224572 pg·days/mL and 291636 pg·days/mL and 225830 pg·days/mL and 231319 pg·days/mL
- AUC(0-∞) [4, 8]: 161690 pg·days/mL and 225452 pg·days/mL and 294236 pg·days/mL and 226283 pg·days/mL and 231824 pg·days/mL
- Cmax [4, 8]: 26.256 ng/mL and 24.875 ng/mL and 41.257 ng/mL and 27.2 ng/mL and 25.089 ng/mL
- t½ [4, 8]: 56.4 h and 77 h and 69.1 h and 69.8 h and 70.6 h
- t1/2 β, Mean ([5]; 250 μg.kg^−1 ivermectin, harmonic mean): 9.1 d and 9.07* d
- AUC (0-Clast), Mean ([5]; 250 μg.kg^−1 ivermectin, mean): 23441 pg·days/mL
- AUC(0-∞), Mean ([5]; 250 μg.kg^−1 ivermectin, mean): 26546 pg·days/mL
- Tlast, Mean ([5]; 250 μg.kg^−1 ivermectin, mean): 35 days
- tmax, Mean ([5]; 250 μg.kg^−1 ivermectin, mean): 134 h
- AUC(0-∞), Range ([5]; 250 μg.kg^−1 ivermectin, range over cats): [14199-52232] pg.d.ml^−1
- Cmax, Mean ([5]; 0.1 ml.kg^−1 (250 μg.kg^−1 ivermectin), mean): 1.465 ng/mL
- effective on heartworms [6]: 100%
